The target of experiment [1] is human recombinant PAK1-KD protein (Homo sapiens, UniProt Q13153). Put plainly: PAK1-KD (Kinase Domain) IC50 Zlyte Assay (FRET peptide substrate phosphorylation). The note with it: Z'-LYTE, Biological Example 1.
Experiment [2] relates to group I PAKs in EBC1 cells (MEK1 phosphorylation at S298). Put plainly: Cellular PAK IC50 Assay: MEK1 phosphorylation at S298 by HTRF. It counts as cell-based. The note with it: Homo sapiens, EBC-1, 2 h treatment, media containing 0.1% FBS, phospho-MEK1 (S298) HTRF. The method, then:
Cellular PAK IC50 Assay Protocol
Group I PAKs (PAK1-3) are activated upon binding to the Rho GTPases, Rac1 and Cdc42. Activated group I PAKs phosphorylate MEK1 at Serine 298 (S298), one of the two sites in the catalytic domain that is important for stable association between Raf and MEK1 and subsequent MAPK activation. The inhibition of group I PAKs in EBC1 cells is assessed by detecting changes in the level of MEK1 phosphorylation at S298 using homogenous time-resolved fluorescence (HTRF). Inhibitory activity was estimated by treating 2×10^4 EBC1 cells for 2 h with PAK inhibitors in media containing 0.1% FBS. Following inhibitor treatment, cells were lysed with 25 μL of 1× cellular kinase lysis buffer (Cisbio) containing 1× cellular kinase blocking reagent (Cisbio). Cellular lysis was carried out at 4° C. for 2 h with constant shaking before lysate (16 μL) was transferred to white 384-well ProxiPlates™ (Perkin Elmer). Anti-total MEK1 antibody labeled with Europium cryptate donor (1 ng/well) (Cell Signaling Technologies catalog number 2352) and anti-phospho MEK1 (S298) antibody labeled with d2 acceptor (Cell Signaling Technologies catalog number 9128) (10 ng/well) were prepared in 1× detection buffer (CisBio) and added to each well of the assay plate and allowed to incubate at RT overnight. The following day the fluorescence emission from each well was measured in EnVision® (Perkin Elmer) at an excitation of 330 nm and dual emission wavelengths of 615 nm and 665 nm. The signal in each well at 665 nm was multiplied by 10,000 and divided by the signal in the same well at 615 nm to obtain a ratio. Ratio values ([665·10,000]÷615) were plotted as a function of the concentration of compound to determine IC50 values.
Background: TR-FRET usually uses a lanthanide donor and a delayed reading to cut background.

pIC50, pKi: −log10 of the molar value.

For orientation: pKi means −log10 of the Ki, conventionally taken in molar units. A word on the pIC50: it is −log10 of the IC50, conventionally taken in molar units. High values mean a low IC50, low ones a high IC50.

Sequence of human recombinant PAK1-KD protein (Q13153 270-521 limits assumed): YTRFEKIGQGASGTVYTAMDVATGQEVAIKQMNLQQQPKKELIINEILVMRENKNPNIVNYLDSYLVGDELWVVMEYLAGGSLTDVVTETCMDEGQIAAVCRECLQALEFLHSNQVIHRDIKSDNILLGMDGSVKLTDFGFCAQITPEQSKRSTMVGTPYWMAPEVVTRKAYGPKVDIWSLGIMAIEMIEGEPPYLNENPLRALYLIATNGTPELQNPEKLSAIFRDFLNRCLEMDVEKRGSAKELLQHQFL

Consider `CCNc1ncc2cc(-c3ccc(-c4cncc(C)n4)cc3Cl)c(=O)n(CCOC3CCCNC3)c2n1` (stereo not drawn) [Example I-14, 6-(2-Chloro-4-(6-methylpyrazin-2-yl)phenyl)-2-(ethylamino)-8-(2-(piperidin-3-yloxy)ethyl)pyrido[2,3-d]pyrimidin-7(8H)-one], for which, in experiment [1], the pKi was 7.83. Further, the pIC50 in experiment [2] is 6.61.
Taken in the same sequence, the figures for `CCNc1ncc2cc(-c3ccc(-c4ncccc4C)cc3Cl)c(=O)n(C[C@H]3CC[C@H](N)CC3)c2n1` [Example I-16, 8-(((1r,4r)-4-Aminocyclohexyl)methyl)-6-(2-chloro-4-(3-methylpyridin-2-yl)phenyl)-2-(ethylamino)pyrido[2,3-d]pyrimidin-7(8H)-one] were 8.14 and 7.12.
For `CCNc1ncc2cc(-c3ccc(-c4cncc(C)n4)cc3Cl)c(=O)n(C[C@H]3CC[C@H](NC)CC3)c2n1` [Example I-17, 6-(2-Chloro-4-(6-methylpyrazin-2-yl)phenyl)-2-(ethylamino)-8-(((1r,4r)-4-(methylamino)cyclohexyl)methyl)pyrido[2,3-d]pyrimidin-7(8H)-one] the same measures were 8.32 and 7.02.
For `CNc1ncc2cc(-c3ccc(-c4cncc(C)n4)cc3Cl)c(=O)n(CCCN)c2n1` [Example I-18, 8-(3-Aminopropyl)-6-[2-chloro-4-(6-methylpyrazin-2-yl)phenyl]-2-(methylamino)pyrido[2,3-d]pyrimidin-7-one] the same measures were 7.86 and 6.29.
With `CCNc1ncc2cc(-c3ccc(-c4cccc(C)n4)cc3C)c(=O)n(CCOC3CNC3)c2n1` [Example I-31, 8-(2-(azetidin-3-yloxy)ethyl)-2-(ethylamino)-6-(2-methyl-4-(6-methylpyridin-2-yl)phenyl)pyrido[2,3-d]pyrimidin-7(8H)-one], the pKi in experiment [1] is 8.34. Besides, the negative-log IC50 (pIC50) in experiment [2] is 6.90.
Taken in the same sequence, the figures for `CCNc1ncc2cc(-c3ccc(-c4cccc(C)n4)cc3Cl)c(=O)n(CC3CCNCC3)c2n1` [Example I-44, 6-(2-Chloro-4-(6-methylpyridin-2-yl)phenyl)-2-(ethylamino)-8-(piperidin-4-ylmethyl)pyrido[2,3-d]pyrimidin-7(8H)-one] were 8.34 and 7.14.
For `Cc1cncc(-c2ccc(-c3cc4cnc(N)nc4n(CC4OCC(N)CO4)c3=O)c(Cl)c2)n1` (stereo not drawn) [Example I-56, 2-Amino-8-[((2s,5s)-5-amino-1,3-dioxan-2-yl)methyl]-6-[2-chloro-4-(6-methylpyrazin-2-yl)phenyl]pyrido[2,3-d]pyrimidin-7-one and 2-amino-8-[((2r,5r)-5-amino-1,3-dioxan-2-yl)methyl]-6-[2-chloro-4-(6-methylpyrazin-2-yl)phenyl]pyrido[2,3-d]pyrimidin-7-one] the same measures were 7.73 and 6.37.
Taken in the same sequence, the figures for `CCNc1ncc2cc(-c3ccc(-c4cccc(C)n4)cc3Cl)c(=O)n(CCOCCN)c2n1` [Example I-64, 8-[2-(2-Aminoethoxy)ethyl]-6-[2-chloro-4-(6-methyl-2-pyridyl)phenyl]-2-(ethylamino)pyrido[2,3-d]pyrimidin-7-one] were 8.55 and 7.45.
Consider `CCNc1ncc2cc(-c3ccc(-c4cccc(C)n4)cc3C)c(=O)n(CCCC(N)=O)c2n1` [Example I-70, 4-[2-(Ethylamino)-6-[2-methyl-4-(6-methyl-2-pyridyl)phenyl]-7-oxo-pyrido[2,3-d]pyrimidin-8-yl]butanamide], for which the pKi in experiment [1] was 7.76. In experiment [2], the negative-log IC50 (pIC50) is 6.54.
Take `CCNc1ncc2cc(-c3ccc(-c4cncc(C)n4)cc3Cl)c(=O)n(C3COC4(CCNC4)C3)c2n1` (stereo not drawn) [Example I-75, 6-[2-Chloro-4-(6-methylpyrazin-2-yl)phenyl]-2-(ethylamino)-8-(1-oxa-7-azaspiro[4.4]nonan-3-yl)pyrido[2,3-d]pyrimidin-7-one]: the negative-log Ki (pKi) in experiment [1] is 7.69. The compound further gave a pIC50 in experiment [2] of 6.71.
For `Cc1cccc(-c2ccc(-c3cc4cnc(NCC(F)F)nc4n(CCN4CCNCC4)c3=O)c(Cl)c2)n1` [Example I-89, 6-[2-Chloro-4-(6-methyl-2-pyridyl)phenyl]-2-(2,2-difluoroethylamino)-8-(2-piperazin-1-ylethyl)pyrido[2,3-d]pyrimidin-7-one] the same measures were 8.11 and 7.24.
For `Cc1cccc(-c2ccc(-c3cc4cnc(NC5COC5)nc4n(CCOCCN)c3=O)c(C)c2)n1` [Example I-108, 8-[2-(2-aminoethoxy)ethyl]-6-[2-methyl-4-(6-methyl-2-pyridyl)phenyl]-2-(oxetan-3-ylamino)pyrido[2,3-d]pyrimidin-7-one] the same measures were 8.60 and 7.08.
